Measurements: PMC10251479, “PROTAC-Induced Glycogen Synthase Kinase 3β Degradation as a Potential Therapeutic Strategy for Alzheimer’s Disease” (ACS Chemical Neuroscience, 2023)

How the values were obtained:
[1] = system: SH-SY5Y cells; assay: Neuroprotective effects against CuSO4 in SH-SY5Y cells (MTT); format: cell-based, human; conditions: 24 h, CuSO4 150 μM
Description: SH-SY5Y cells were seeded in a 96-well plate at 2 × 10^4 cells/well, incubated for 24 h and then […]
presence of CuSO4 (150 µM) at 37 °C in 5 % CO2. Cells were also treated with compound 1 (1 µM) for 24 h in the presence of lactacystin (5 µM). At the end of the treatment, the cell viability, in terms of mitochondrial metabolic function, was evaluated by the reduction of 3-(4,5-dimethyl-2-thiazolyl)- 2,5-diphenyl-2H-tetrazolium bromide (MTT) to its insoluble formazan. Briefly, the treatment was replaced with MTT in HBSS [0.5 mg/mL] for 2 h at 37°C in 5% CO2. After washing with HBSS, formazan crystals were dissolved in isopropanol. The amount of formazan was measured (570 nm, reference filter 690 nm) using a multilabel plate reader (VICTOR™ X3, PerkinElmer, Waltham, MA, USA).[10] Data are reported as mean ± SEM of three independent experiments. The neurotoxicity was expressed as a percentage of control cells and calculated by the formula: 100 – ((absorbance of treated

[2] = target: GSK-3β protein (Homo sapiens, UniProt P49841); assay: GSK-3β degradation by Western blotting in SH-SY5Y cells; format: cell-based; set-up: endogenous in cells; host or cells: SH-SY5Y
Description: Determination of GSK-3β degradation by Western Blotting
At the end of incubation, cells were trypsinized and the cellular pellet was resuspended in complete lysis buffer containing leupeptin (2 µg/mL, Sigma-Aldrich), phenylmethylsulfonyl fluoride (PMSF, 100 µg/mL, Sigma-Aldrich) and a cocktail of protease/phosphatase inhibitors (100×). The protein concentration was determined using the Bradford method (Bio-Rad Laboratories Srl, Hercules, CA, USA). The protein lysates (50 µg per […]
polyacrylamide gels, Bio-Rad Laboratories SrL) and electroblotted onto 0.45 µm nitrocellulose membranes. Membranes were incubated overnight at 4 °C with primary antibody recognizing GSK-3β (1:1000, Cell Signaling Technologies Inc, Danvers, MA, USA). Membranes were then washed with TRIS-buffered saline-T (TBS + 0.05% Tween20), and then incubated with horseradish peroxidase (POD) linked anti-rabbit secondary antibody (1:2000, GE Healthcare, Chicago, IL, USA).
Immunoreactive bands were visualized by enhanced chemiluminescence (ECL, Bio-Rad Laboratories Srl). The same membranes were stripped and reprobed with anti β-actin (1:1000, Sigma-Aldrich). Data were normalized on the β-actin bands and analyzed by densitometry, using the Quantity One software (Bio-Rad Laboratories Srl).[9] […]

Sequence of GSK-3β protein (P49841 whole entry): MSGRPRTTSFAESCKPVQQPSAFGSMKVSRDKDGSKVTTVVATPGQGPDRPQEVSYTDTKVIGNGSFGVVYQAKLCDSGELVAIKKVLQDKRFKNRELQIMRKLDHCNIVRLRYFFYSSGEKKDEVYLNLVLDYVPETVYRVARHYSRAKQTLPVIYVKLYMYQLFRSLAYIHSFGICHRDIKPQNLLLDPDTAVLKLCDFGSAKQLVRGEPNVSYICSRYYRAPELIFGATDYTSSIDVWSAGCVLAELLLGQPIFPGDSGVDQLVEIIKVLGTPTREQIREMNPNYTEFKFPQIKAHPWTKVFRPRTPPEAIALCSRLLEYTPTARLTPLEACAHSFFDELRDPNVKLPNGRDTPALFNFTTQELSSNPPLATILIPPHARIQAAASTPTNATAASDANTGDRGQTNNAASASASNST

SMILES: O=C(Cn1cc(C2=C(c3ccc(Cl)cc3Cl)C(=O)NC2=O)c2ccccc21)NCCCOCCCCOCCCNc1cccc2c1C(=O)N(C1CCC(=O)NC1=O)C2=O (stereo not shown) [Compound 1]
- neurotoxicity induced by CuSO4 ([1]; 1 μM, MTT): significantly counteracted the neurotoxicity induced by CuSO4
- neuroprotective effect against CuSO4 in the presence of lactacystin ([1]; lactacystin 5 μM): abolished by lactacystin
- total GSK-3β protein level ([2]; 10 μM, 48 h, Western blotting): significantly decreased the total level of GSK-3β protein
- DC50 ([2]; 48 h, 0.5, 1, 5 and 10 μM, read-out: half-maximal degradation (DC50)): 6.22 µM
- GSK-3β protein level, dose dependence ([2]; 48 h at 0.5, 1, 5 and 10 μM): significantly decreased GSK-3β protein level at all tested concentrations in a dose-dependent manner
- total GSK-3β protein level in the presence of lactacystin ([2]; compound 10 μM, 24 h, lactacystin 5 μM): had no effect on the total GSK-3β protein level
- concentration from which GSK-3β is degraded ([2]; dose-dependent): ≥ 0.5 µM
